Data taken from patent US20160199338A1, “COMPOSITIONS CONTAINING MONOACETYLDIACYLGLYCEROL COMPOUND AS AN ACTIVE INGREDIENT FOR PREVENTING OR TREATING RHEUMATOID ARTHRITIS” (ENZYCHEM LIFESCIENCES CORPORATION, priority 2013, published 2016).

How the values were obtained:
[1] = GLP toxicity test; cited from earlier work
[2] = tested on: arthritis induced by bovine type II collagen in male DBA/1J mouse; assay: Collagen-induced arthritis animal model; format: in vivo; settings: for histopathological arthritis score of knee joint: knee joint of both hind legs, vs negative control (FIG. 6); for histopathological arthritis score of knee joint / concentration of IL-6 in serum: EC-18 125, 500, 2,000 mg/kg oral, Remicade 20 mg/kg intraperitoneal, methotrexate 2.5 mg/kg oral; for concentration of IL-6 in serum: serum collected at day of tissue excision, once a day for five weeks, vs negative control (FIG. 4)
Method: For arthritis animal model experiment, arthritis was induced in male DBA/1J mouse by administering bovine type II collagen to the mouse. Efficacy of EC-18 for treating (or improving) arthritis was evaluated by repeatedly administering EC-18 to the mouse orally. For comparison, Remicade (positive control 1) was administered intraperitoneally and methotrexate (positive control 2) was administered orally. The experiment included seven groups: normal group (G1), negative control (G2), 125 mg/kg, 500 mg/kg and 2,000 mg/kg of EC-18 (EC-18 treatment groups, G3, G4, G5), 20 mg/kg of Remicade (Positive control 1, G6) and 2.5 mg/kg of Methotrexate (Positive control 2, G7). Each group consists of 10 mice. Olive oil was administered to normal group (G1) and negative control group (G2) as an excipient. In all groups, administration was made once a day for five weeks (a total of 35 administrations). Remicade (G6) was administered intraperitoneally, whereas EC-18, methotrexate and olive oil were administered orally in force. For all groups except normal Group (G1), arthritis was induced by immunizing animals twice with bovine type II collagen and complete Freund's adjuvant or incomplete Freund's adjuvant emulsion. During the observation period, common arthritis symptoms were observed once a day, weigh measured once a week, arthritic score evaluation made with the naked eye twice a week, foot thickness measured twice a week.

Row | Molecule | toxicity [1] | histopathological arthritis score of knee joint [2] | concentration of IL-6 in serum [2] | crushing of cartilage and increase of Pannus (stained arthritic tissue) ([2]; EC-18 500 mg/kg (G4), Remicade 20 mg/kg (G6), vs negative control (FIGS. 7 and 8))
1 | CCCCC/C=C\C/C=C\CCCCCCCC(=O)OC(COC(C)=O)COC(=O)CCCCCCCCCCCCCCC (stereo not drawn) [EC-18, 1-palmitoyl-2-linoleoyl-3-acetylglycerol] | no toxicity | – | – | –
2 | CN(Cc1cnc2nc(N)nc(N)c2n1)c1ccc(C(=O)N[C@@H](CCC(=O)O)C(=O)O)cc1 [Methothrexate, methotrexate] | – | reduced | reduced | –
3 | Remicade: positive control 1, administered intraperitoneally at 20 mg/kg | – | reduced | reduced | reduced
